Measurements published in US20030198692A1, “Microbial inhibitory compositions” (priority 2000, published 2003).

How the values were obtained:
Type in all cases: cell-based
Escherichia coli = experiment: Growth of Escherichia coli in the presence of polymyxin B and furanones; details: furanone 10 μg/ml with polymyxin B 0.3-1 μg/ml
Method: Growth of Gram negative bacteria is not generally affected by furanone compounds alone. […] In order to explore this concept, the antibiotic polymyxin B was included in the initial round of experiments (see FIGS. 2, 3 and 4) involving the bacteria Escherichia coli, Burkholdera cepacia and Pseudomonas aeruginosa. […] Different furanone compounds under test were applied at 10 μg/ml (concentration of stock solution of furanone compound or mixture of compounds was 2 mg/ml) and polymyxin B was employed at concentrations which ranged from 0.3-1 μg/ml (stock solution was 10 mg/ml).

Corynebacterium jeikeium = experiment: Growth of Corynebacterium jeikeium in the presence of furanone 2 and EDTA; details: compound 100 μg/ml in combination with EDTA 0.02%
Method: Moreover, the growth of the Gram-positive bacteria, Corynebacterium jeikeium, was inhibited by compound 2 (100 μg/ml) in combination with EDTA (0.02%). The lagphase of growth was prolonged for 20 hr.

Pseudomonas aeruginosa = experiment: Growth of Pseudomonas aeruginosa in the presence of furanones, alone or with a cell-permeabilising agent; details: for prevention of growth of P. aeruginosa (ranking): furanone 10 μg/ml with EDTA 0.02%
Method: Ten furanones (compounds 2, 3, 19, 30, 45, 55, 56, 24/25, 26/27 and 33/34) (see Table 2) were tested against growth of Gram negative bacteria in a combination treatment using a cell permeabilising agent (Polymyxin B and EDTA).
Different furanone compounds under test were applied at 10 μg/ml (concentration of stock solution of furanone compound or mixture of compounds was 2 mg/ml) and polymyxin B was employed at concentrations which ranged from 0.3-1 μg/ml (stock solution was 10 mg/ml).
In addition, EDTA which also affects the permeability of the cell membrane was tested against growth of P. aeruginosa in combination with the different furanones. EDTA was added at a concentration of 0.02%. […] It is possible that they differently allow for different furanones to penetrate the cell membrane.
Growth of Pseudomonas aeruginosa in the presence of citric acid, toluene, Tween 80 and two different quaternary ammonium compounds was further investigated. The tested furanones was furanone 30 and 34 at 10 μg/ml (concentration of stock solution of furanone compound was 10 mg/ml). The used cell-permeability agents were employed at concentrations which ranged from 0.35-0.001%.

Candida albicans = experiment: Growth of Candida albicans in the presence of furanone 57 with or without EDTA
Method: The yeast, Candida albicans, was tested in the presence of furanone 57 at 250 ng/ml. […] In combination with 0.01% EDTA the growth of the cells was inhibited for at least 32 hrs.

[1] = furanone 10 μg/ml in combination with citric acid

CCCCC1=C(Br)C(=C(Br)Br)OC1=O [Compound 2]
time period of inhibition of growth of E. coli (Escherichia coli): 8 h
growth of Corynebacterium jeikeium (Corynebacterium jeikeium): inhibited
prolongation of lag phase of growth of Corynebacterium jeikeium (Corynebacterium jeikeium): 20 h

O=C1C=C(Br)/C(=C/Br)O1 [Compound 30]
prolongation of lag phase of growth of P. aeruginosa (in words) (Pseudomonas aeruginosa; [1]): also prolonged the lag phase of growth however not as strongly as compound 34
prevention of growth of P. aeruginosa (ranking) (Pseudomonas aeruginosa): most effective compounds in preventing growth
growth of P. aeruginosa (Pseudomonas aeruginosa; furanone 10 μg/ml with Tween 80): slight growth inhibition
growth of P. aeruginosa (Pseudomonas aeruginosa; furanone 10 μg/ml with didecyldimethylammonium bromide): inhibited the growth of P. aeruginosa
activity against P. aeruginosa (ranking) (Pseudomonas aeruginosa; furanone 10 μg/ml with polymyxin B 0.3-1 μg/ml): most active compound
growth of P. aeruginosa (Pseudomonas aeruginosa; furanone 10 μg/ml with tetrabutylammoniumhydrogen sulfate (slightly more active of the two quaternary ammonium compounds)): inhibited the growth of P. aeruginosa

CCCCCC(Br)C1=CC(=C(Br)Br)OC1=O (centres unmarked) [Compound 34]
prolongation of lag phase of growth of P. aeruginosa (Pseudomonas aeruginosa; [1]): approximately 3 hours

CCCC(F)C1=C(Br)/C(=C/Br)OC1=O (centres unmarked) [Compound 45]
time period of inhibition of growth of E. coli (Escherichia coli): 8 h

O=C1C=C/C(=C/Br)O1 [Compound 56]
prevention of growth of P. aeruginosa (ranking) (Pseudomonas aeruginosa): most effective compounds in preventing growth

CCCCCC(F)C1=C(Br)/C(=C/Br)OC1=O (centres unmarked) [Compound 57]
duration of inhibition of growth of C. albicans cells (Candida albicans; compound 250 ng/ml alone): 24 h
duration of inhibition of growth of C. albicans cells (Candida albicans; compound 250 ng/ml in combination with 0.01% EDTA): at least 32 hrs
